Columns and labels:
[1] = test system: miR-21-5p in HEK293T cells; experiment: RT-qPCR of mature miR-21-5p in HEK293T cells (dimer linker screening); format: cell-based; settings: n=3, n=4 and 1
PTEN = PTEN 3′ UTR luciferase reporter assay in MDA-MB-231 cells; format: cell-based, human
Protocol: PTEN Luciferase Assay. The MDA-MB-231 cells were grown in 48-well plates to ˜60% confluency and then transiently co-transfected with a Firefly luciferase plasmid encoding the 3′ untranslated region (UTR) of PTEN^25 and a control Renilla luciferase plasmid using Lipofectamine 2000 per the manufacturer's protocol. At 5 h post-transfection, compounds diluted in growth medium were added to cells and then incubated for 48 h. Luciferase assays were completed using a previously described protocol^23,26. Luminescence signal was measured on a Biotek Flx800 plate reader.

[2] = DMPK: plasma levels in C57BL/6 mice; format: in vivo, mouse; settings: i.p., 10 mg/kg
Protocol: DMPK Measurements: Male C57BL/6 mice (n=3, 5-7 weeks) were used for pharmacokinetics (PK) assessment. Mice were dosed i.p. (10 mg/kg) with 5 in a formulation of DMSO/Tween-80/H2O (10/10/80) and blood (25 μL) was drawn at 0.25, 0.5, 1, 2, 4, 6, 8, and 24 h time points. Detection of compound levels in blood plasma was determined using LC/MS-MS on a QTRAP 5500 LC-MS/MS System (AB Sciex).

pre-miR-21 = experiment: In vitro RNase L cleavage of pre-miR-21 (FRET sensor, gel mapping); format: biochemical
Protocol: In Vitro Fluorescent RNA Cleavage. A model RNA hairpin^15 labeled with a 5′ 6-Fluorescein (6FAM) and 3′ Black Hole Quencher (IQ4) (5′ 6FAM-[…]-3′ IQ4; 5′ FAM/3′ BHQ model RNA) (SEQ ID NO: 3) or a miR-21 Hairpin Precursor RNA labeled with a 5′ 6-Fluorescein (6FAM) and 3′ Black Hole Quencher (IQ4) (5′ 6FAM-[…] […]-3′ IQ4; 5′ FAM/3′ BHQ miR-21 Hairpin Precursor RNA) (SEQ ID NO: 4) was purchased from Chemgenes with HPLC purification. Solutions of RNA (100 nM) were folded at 65° C. for 5 min and slowly cooled to room temperature in 1×RNase L Buffer (25 mM Tris-HCl, pH 7.4, 100 mM KCl) without MgCl2, β-mercaptoethanol or ATP. After folding, the RNA was supplemented with 10 mM MgCl2, fresh 7 mM β-mercaptoethanol, and 50 μM of ATP. Next, 100 nM of RNase L, prepared as described previously^22, and various concentrations of screening compounds were prepared in 1×RNase L Buffer and added to the RNA. […] The samples were incubated at room temperature for 60 min after which the fluorescence intensity (Ex: 485 nm, Em: 525 nm) was measured using a SpectraMax M5 plate reader or Biotek FLx800 plate reader. The percentage change in fluorescence intensity, where enhancement of fluorescence intensity was indicative of RNA cleavage, was determined by calculating the percentage change in sample fluorescent signals relative to the untreated fluorescent signal (Fi, %). […]

MDA-MB-231-Luc cells = experiment: In vivo MDA-MB-231 lung metastasis model in NOD/SCID mice; design: species or system mouse; settings: 10 mg/kg; for lung nodules / metastasis to lung: 6 weeks
Protocol: FIGS. 46A-46C. In vivo mouse weights and Scrambled FISH staining of lung nodules with 5 treatment. […] Treatment of mice with 10 mg/kg of 5 started after 6 days of tumor cell injection. […] Dashed line indicates normalized signal intensity in vehicle samples.
Intravenous delivery of MDA-MB-231 cells to mice is a model of breast cancer metastasis and metastatic behavior can be affected by inhibition of miR-21, S. Yang, J. J. Zhang, X.-Y. Huang, Mouse models for tumor metastasis. Methods Mol. Biol. 928, 221-228 (2012).

IFN-γ = IFN-γ ELISA of MDA-MB-231 supernatant; format: cell-based, human
Protocol: Measurement of IFN-γ: The MDA-MB-231 cells were plated into a 24-well plate and allowed to grow to 70% confluency. Cells were transfected with 2′-5′ A4 using Lipofectamine RNAiMAX (Life Technologies). Alternatively, MDA-MB-231 cells were mock transfected and treated with vehicle (DMSO) or 5 (5, 50, 500, 5000 nM). Cell culture supernatant was removed at 24 h. The Human IFN-γ ELISA Kit (Bon Opus Biosciences: BE010020) was used to measure interferon gamma levels from the supernatants, per the manufacturer's instructions.

[3] = test system: Ifng, OAS1, RIG-I, MDA5 mRNAs; experiment: RT-qPCR of antiviral innate immune response mRNAs in MDA-MB-231 cells; format: cell-based, human
Protocol: Cell culture compound treatment and transfection. For treatment with compounds, stocks in DMSO or water were diluted in growth media and added to cells for 24-72 h. For transfection of plasmid DNA to overexpress the miR-21 hairpin precursor in pcDNA3.1 (Addgene 21114) or pcDNA3-RNaseL (R. H. Silverman, Cleveland Clinic^24) in 24-well plates, Lipofectamine 2000 was used according to the manufacturer's protocol. After transfection, the medium was removed and replaced with growth medium containing compound prepared as described above. For transfection of a control (Santa Cruz Biotechnology: sc-37007) or RNase L targeting siRNA (Santa Cruz Biotechnology: sc-45965), Lipofectamine RNAiMAX Reagent was used for transfection of oligonucleotides, including 2′-5′ A4, according to the manufacturer's protocol.

SMILES	inhibition of miR-21 levels, dose response of linker lengths [1]	increase of PTEN luciferase signal relative to mock or scramble controls (PTEN) [fold]	increase of PTEN levels (PTEN; 10 μM) [%]	concentrations maintained in mice (plasma) [2]	cleavage sites in labeled pre-miR-21 WT RNA (gel mapping) (pre-miR-21; 5 and RNase L treatment)	fluorescence cleavage of pre-miR-21 labeled FRET sensor (pre-miR-21; with RNase L)	weight changes compared to vehicle-treated mice (MDA-MB-231-Luc cells; over 42 days, NOD/SCID mice)	PDCD4 in lung nodule tissue sections (MDA-MB-231-Luc cells; q.o.d.)	hematoxylin and eosin (HE) staining of lung tissue (MDA-MB-231-Luc cells; q.o.d.)	mature miR-21 in lung nodule tissue (FISH) (MDA-MB-231-Luc cells; q.o.d.)	pre-miR-21 in lung nodule tissue (FISH) (MDA-MB-231-Luc cells; q.o.d.)	lung nodules / metastasis to lung (MDA-MB-231-Luc cells; q.o.d.)	lung nodules / metastasis to lung (MDA-MB-231-Luc cells; q.o.d., listed as Formula 5)	PDCD4 in lung nodule tissue sections (MDA-MB-231-Luc cells; q.o.d., listed as Formula 5)	mature miR-21 in lung nodule tissue (FISH) (MDA-MB-231-Luc cells; q.o.d., listed as Formula 5)	pre-miR-21 in lung nodule tissue (FISH) (MDA-MB-231-Luc cells; q.o.d., listed as Formula 5)	tolerability (MDA-MB-231-Luc cells; intraperitoneal injection, q.o.d.)	IFN-7 ELISA (IFN-γ)	levels of mRNAs associated with the antiviral innate immune response ([3]; 5 50 nM, 2′-5′ A4 500 nM transfected)	modulation of innate immunity biomarkers (RT-qPCR and ELISA) ([3]; MDA-MB-231)
CCCN(CC(=O)N(CCC)CC(=O)N(CCC)CC(=O)N(CC(N)=O)Cc1cn(CCCNC(=O)CCCOc2ccc(-c3nc4cc(-c5ccc(N6CCN(C)CC6)cc5)ccc4[nH]3)cc2)nn1)C(=O)CNCc1cn(CCCNC(=O)CCCOc2ccc(-c3nc4cc(-c5ccc(N6CCN(C)CC6)cc5)ccc4[nH]3)cc2)nn1 [Compound 2]	most significantly inhibited miR-21 levels	~1.5	~50	–	–	–	–	–	–	–	–	–	–	–	–	–	–	–	–	–
CCCN(CC(=O)N(CCC)CC(=O)N(CCC)CC(=O)N(CC(=O)NCCOCCOCCOCCOc1ccc(C=C2SC(Nc3ccccc3)=C(C(=O)OCC)C2=O)cc1O)Cc1cn(CCCNC(=O)CCCOc2ccc(-c3nc4cc(-c5ccc(N6CCN(C)CC6)cc5)ccc4[nH]3)cc2)nn1)C(=O)CN(Cc1cn(CCCNC(=O)CCCOc2ccc(-c3nc4cc(-c5ccc(N6CCN(C)CC6)cc5)ccc4[nH]3)cc2)nn1)C(C)=O [Compound 5]	–	–	–	low nanomolar concentrations	Cleavage was observed at U27, G25, C23, and G21	dose responsive increase in cleavage	did not cause significant weight changes	increased PDCD4 levels	decreased hematoxylin and eosin (HE) staining	decreased mature miR-21	decreased	decreased lung nodules	inhibited breast cancer metastasis to lung	increase in PDCD4 protein expression	diminished	diminished	well tolerated	no activation of the innate antiviral immune response	No upregulation	No significant changes were observed

Reference: patent US12617757B2, “Compounds and modules for inhibition of pre-miR-21 and their use in treatment of certain cancers” (University of Florida Research Foundation, Incorporated, priority 2019, dated 2026)
